Source: ChEMBL document CHEMBL4414548 (J Med Chem, 2019)
The source made the active and inactive calls. The calls are words filed in the database; no cut-off is given here.

Legend:
JAK2/TYK2 = JAK2/TYK2 (Homo sapiens, UniProt O60674+P29597); experiment: Inhibition of TYK2/JAK2 in IL23-stimulated human Kit225 cells by steady-glo luciferase assay
JAK1/TYK2 = JAK1/TYK2 (Homo sapiens, UniProt P23458+P29597); experiment: Inhibition of TYK2/JAK1 in IFNalpha-stimulated human Kit225 cells by steady-glo luciferase assay
[1] = biological target: T1, Non-receptor tyrosine-protein kinase TYK2 (Homo sapiens, UniProt P29597); experiment: Inhibition of TYK2 JH2 domain in human whole blood assessed as inhibition of IFNalpha-induced STAT5 phosphorylation preincubated for 1 hr followed by IFNalpha stimulation and measured after 15 mins by fluorescence assay; format: tissue-based
T1 sequence (P29597 whole entry, the tested form may be a part): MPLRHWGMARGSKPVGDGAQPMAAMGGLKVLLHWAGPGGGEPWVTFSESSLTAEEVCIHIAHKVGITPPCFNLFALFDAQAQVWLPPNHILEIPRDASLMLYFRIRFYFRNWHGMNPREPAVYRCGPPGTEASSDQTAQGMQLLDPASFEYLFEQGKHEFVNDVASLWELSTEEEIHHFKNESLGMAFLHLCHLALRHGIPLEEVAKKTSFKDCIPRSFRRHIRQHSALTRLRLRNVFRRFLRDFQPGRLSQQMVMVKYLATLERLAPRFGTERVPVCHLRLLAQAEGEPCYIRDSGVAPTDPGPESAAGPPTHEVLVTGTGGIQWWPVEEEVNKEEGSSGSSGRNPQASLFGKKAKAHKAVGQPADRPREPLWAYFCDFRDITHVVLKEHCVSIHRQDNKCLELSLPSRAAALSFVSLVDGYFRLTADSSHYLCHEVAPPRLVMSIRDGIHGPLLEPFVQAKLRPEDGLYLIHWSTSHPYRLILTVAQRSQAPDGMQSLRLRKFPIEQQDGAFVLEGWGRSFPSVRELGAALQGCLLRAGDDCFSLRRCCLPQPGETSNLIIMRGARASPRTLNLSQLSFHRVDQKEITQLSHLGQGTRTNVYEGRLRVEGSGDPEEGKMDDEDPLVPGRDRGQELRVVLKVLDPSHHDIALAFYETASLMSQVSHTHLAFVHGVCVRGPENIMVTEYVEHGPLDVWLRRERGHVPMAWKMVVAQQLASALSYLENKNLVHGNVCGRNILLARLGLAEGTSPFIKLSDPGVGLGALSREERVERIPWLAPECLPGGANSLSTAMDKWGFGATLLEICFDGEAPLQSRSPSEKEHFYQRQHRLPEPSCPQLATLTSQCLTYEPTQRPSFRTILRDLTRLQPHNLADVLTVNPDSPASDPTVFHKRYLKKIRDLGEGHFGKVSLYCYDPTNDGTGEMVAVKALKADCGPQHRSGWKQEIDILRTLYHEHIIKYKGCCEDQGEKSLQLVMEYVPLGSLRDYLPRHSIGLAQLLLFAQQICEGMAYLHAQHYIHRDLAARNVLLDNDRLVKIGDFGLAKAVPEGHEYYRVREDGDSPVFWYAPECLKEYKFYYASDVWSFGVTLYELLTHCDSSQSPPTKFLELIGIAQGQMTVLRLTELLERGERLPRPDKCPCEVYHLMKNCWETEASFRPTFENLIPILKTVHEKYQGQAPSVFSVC

[2] = biological target: Mast/stem cell growth factor receptor Kit (Homo sapiens, UniProt P10721); experiment: Inhibition of cKIT (unknown origin)
Sequence of Mast/stem cell growth factor receptor Kit (P10721 whole entry, the tested form may be a part): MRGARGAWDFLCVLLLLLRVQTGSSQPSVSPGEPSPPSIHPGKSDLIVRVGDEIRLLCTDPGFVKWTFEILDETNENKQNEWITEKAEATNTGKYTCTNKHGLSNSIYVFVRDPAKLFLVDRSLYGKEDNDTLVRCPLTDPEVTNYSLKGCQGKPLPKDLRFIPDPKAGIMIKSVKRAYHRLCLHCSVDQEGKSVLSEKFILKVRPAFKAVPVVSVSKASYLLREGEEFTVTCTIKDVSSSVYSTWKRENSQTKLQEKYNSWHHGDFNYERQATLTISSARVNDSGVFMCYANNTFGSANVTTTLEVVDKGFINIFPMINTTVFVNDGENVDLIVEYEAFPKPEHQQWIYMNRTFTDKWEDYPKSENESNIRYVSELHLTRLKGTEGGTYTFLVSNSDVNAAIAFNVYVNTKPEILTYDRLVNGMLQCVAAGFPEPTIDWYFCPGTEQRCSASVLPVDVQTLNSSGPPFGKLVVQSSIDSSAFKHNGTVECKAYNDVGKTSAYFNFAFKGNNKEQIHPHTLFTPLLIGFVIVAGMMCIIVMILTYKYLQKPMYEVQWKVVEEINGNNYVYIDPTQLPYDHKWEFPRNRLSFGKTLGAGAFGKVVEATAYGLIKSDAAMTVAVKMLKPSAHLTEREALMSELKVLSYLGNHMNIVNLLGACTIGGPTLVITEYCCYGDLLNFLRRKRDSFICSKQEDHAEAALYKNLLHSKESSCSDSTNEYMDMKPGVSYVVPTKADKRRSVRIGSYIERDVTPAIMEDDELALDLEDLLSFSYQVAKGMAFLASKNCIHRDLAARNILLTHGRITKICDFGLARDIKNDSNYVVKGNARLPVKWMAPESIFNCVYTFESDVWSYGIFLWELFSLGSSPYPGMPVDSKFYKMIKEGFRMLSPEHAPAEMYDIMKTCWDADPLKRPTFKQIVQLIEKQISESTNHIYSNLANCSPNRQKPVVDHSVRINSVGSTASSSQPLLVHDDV

[3] = biological target: T1, Non-receptor tyrosine-protein kinase TYK2; experiment: Inhibition of fluorescein-labeled kinase tracer binding to His-TVMV-fused TYK2 JH2 domain (575 to 869 residues) (unknown origin) measured after 90 mins by HTRF assay
[4] = biological target: T1, Non-receptor tyrosine-protein kinase TYK2; experiment: Inhibition of TYK2 JH1 domain (unknown origin)
[5] = biological target: Tyrosine-protein kinase JAK1 (Homo sapiens, UniProt P23458); experiment: Inhibition of JAK1 JH1 domain (unknown origin)
[6] = biological target: Tyrosine-protein kinase JAK2 (Homo sapiens, UniProt O60674); experiment: Inhibition of JAK2 JH1 domain (unknown origin)
Sequence of Tyrosine-protein kinase JAK2 (O60674 whole entry, the tested form may be a part): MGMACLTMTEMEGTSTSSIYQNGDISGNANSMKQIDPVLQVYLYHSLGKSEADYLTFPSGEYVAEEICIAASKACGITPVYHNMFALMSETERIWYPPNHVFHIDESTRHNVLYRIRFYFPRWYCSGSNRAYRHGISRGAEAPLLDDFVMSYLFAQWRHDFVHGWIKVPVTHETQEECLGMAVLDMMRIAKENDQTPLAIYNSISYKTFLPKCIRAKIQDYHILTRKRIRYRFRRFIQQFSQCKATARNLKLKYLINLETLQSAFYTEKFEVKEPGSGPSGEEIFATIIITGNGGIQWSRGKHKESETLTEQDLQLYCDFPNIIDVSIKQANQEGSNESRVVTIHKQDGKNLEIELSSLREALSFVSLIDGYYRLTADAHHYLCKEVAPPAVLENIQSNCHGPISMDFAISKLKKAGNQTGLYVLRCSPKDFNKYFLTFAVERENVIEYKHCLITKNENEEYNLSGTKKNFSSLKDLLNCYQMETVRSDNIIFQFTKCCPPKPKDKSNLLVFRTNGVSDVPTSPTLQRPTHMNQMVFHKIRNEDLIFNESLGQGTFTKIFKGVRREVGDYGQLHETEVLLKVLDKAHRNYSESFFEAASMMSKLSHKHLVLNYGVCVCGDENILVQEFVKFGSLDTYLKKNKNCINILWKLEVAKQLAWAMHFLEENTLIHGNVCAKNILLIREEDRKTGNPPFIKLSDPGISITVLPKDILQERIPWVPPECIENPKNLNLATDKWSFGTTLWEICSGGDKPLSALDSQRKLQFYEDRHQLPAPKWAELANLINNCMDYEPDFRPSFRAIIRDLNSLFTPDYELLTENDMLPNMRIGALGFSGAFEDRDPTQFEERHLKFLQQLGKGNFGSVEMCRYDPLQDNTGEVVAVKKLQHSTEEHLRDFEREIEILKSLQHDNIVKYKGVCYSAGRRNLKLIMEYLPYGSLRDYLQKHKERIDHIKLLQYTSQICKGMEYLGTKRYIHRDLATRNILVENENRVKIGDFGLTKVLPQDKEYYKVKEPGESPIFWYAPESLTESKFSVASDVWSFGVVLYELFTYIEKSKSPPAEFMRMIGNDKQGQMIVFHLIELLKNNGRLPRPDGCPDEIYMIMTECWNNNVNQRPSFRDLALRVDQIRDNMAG

[7] = Permeability across apical to basolateral side in human Caco2 cells; format: ADME, cell-based; conditions: Caco-2, read-out: permeability
[8] = Efflux ratio of permeability in human Caco2; format: ADME, cell-based; conditions: Caco-2
[9] = biological target: Non-receptor tyrosine-protein kinase TYK2 (Mus musculus, UniProt Q9R117); experiment: Inhibition of TYK2 JH2 domain in mouse whole blood assessed as inhibition of IFNalpha-induced STAT1 phosphorylation preincubated for 1 hr followed by IFNalpha stimulation and measured after 15 mins by fluorescence assay; format: tissue-based
Sequence of Non-receptor tyrosine-protein kinase TYK2 (Mus musculus, UniProt Q9R117) (Q9R117 whole entry, the tested form may be a part): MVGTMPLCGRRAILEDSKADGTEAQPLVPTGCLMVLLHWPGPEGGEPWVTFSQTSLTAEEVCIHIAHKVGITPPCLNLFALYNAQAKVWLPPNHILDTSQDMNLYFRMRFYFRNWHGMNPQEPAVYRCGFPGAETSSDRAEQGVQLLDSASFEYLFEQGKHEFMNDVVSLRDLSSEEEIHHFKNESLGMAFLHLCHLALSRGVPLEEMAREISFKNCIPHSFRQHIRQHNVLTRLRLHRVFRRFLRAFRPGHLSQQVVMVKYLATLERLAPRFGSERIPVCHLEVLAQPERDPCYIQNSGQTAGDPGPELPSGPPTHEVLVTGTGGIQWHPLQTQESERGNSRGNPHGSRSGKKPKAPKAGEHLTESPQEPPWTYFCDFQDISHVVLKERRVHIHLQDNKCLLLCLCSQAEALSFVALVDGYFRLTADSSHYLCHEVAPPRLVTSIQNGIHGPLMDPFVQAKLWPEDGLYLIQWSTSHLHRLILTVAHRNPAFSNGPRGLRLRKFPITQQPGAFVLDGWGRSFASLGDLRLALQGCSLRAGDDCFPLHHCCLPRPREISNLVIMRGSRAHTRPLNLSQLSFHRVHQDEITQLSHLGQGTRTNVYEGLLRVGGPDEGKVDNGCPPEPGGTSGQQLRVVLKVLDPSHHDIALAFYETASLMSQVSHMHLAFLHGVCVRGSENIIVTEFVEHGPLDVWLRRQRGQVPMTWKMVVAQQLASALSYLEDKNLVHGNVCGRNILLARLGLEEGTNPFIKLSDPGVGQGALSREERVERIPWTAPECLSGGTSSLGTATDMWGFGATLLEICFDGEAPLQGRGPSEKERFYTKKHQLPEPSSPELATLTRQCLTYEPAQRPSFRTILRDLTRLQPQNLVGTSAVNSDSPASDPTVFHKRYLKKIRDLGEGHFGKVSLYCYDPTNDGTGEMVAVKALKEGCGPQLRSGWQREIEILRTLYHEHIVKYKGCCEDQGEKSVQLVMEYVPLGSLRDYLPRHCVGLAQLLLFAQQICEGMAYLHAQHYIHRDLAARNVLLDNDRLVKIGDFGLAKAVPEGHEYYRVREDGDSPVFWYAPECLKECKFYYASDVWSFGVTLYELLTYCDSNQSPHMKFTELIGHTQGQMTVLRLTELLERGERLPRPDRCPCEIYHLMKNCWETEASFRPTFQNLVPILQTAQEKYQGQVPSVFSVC

[10] = Half life in human liver microsomes; format: ADME, Microsome
[11] = Half life in rat liver microsomes; format: ADME, Microsome
[12] = Half life in mouse liver microsomes; format: ADME, Microsome
[13] = Half life in cynomolgus monkey liver microsomes; format: ADME, Macaca fascicularis, Microsome
[14] = Half life in dog liver microsomes; format: ADME, Canis lupus familiaris, Microsome
[15] = Partition coefficient, log P of compound by HPLC analysis; format: physicochemical; conditions: octanol/water
[16] = Cmax in mouse at 10 mg/kg, po after 7 hrs; format: ADME, organism-based; parameters: dose 10 mg/kg, route oral; conditions: in vivo
[17] = AUClast in mouse at 10 mg/kg, po after 7 hrs; format: ADME, organism-based; parameters: time < 7 hr, dose 10 mg/kg, route oral; conditions: in vivo
[18] = biological target: T1, Non-receptor tyrosine-protein kinase TYK2; experiment: Inhibition of TYK2 JH2 (unknown origin) by morrison titration assay; conditions: read-out: Ki(app)
[19] = biological target: T2, Voltage-gated inwardly rectifying potassium channel KCNH2 (Homo sapiens, UniProt Q12809); experiment: Inhibition of human ERG by patch clamp assay
JAK3/JAK1 = JAK3/JAK1 (Homo sapiens, UniProt P23458+P52333); experiment: Inhibition of JAK1/JAK3 (unknown origin) in IL-2 stimulated cells by cell based assay
JAK2/JAK1 = JAK2/JAK1 (Homo sapiens, UniProt O60674+P23458); experiment: Inhibition of JAK1/JAK2 (unknown origin) in GM-CSF stimulated cells by cell based assay
[20] = Metabolic stability in human liver microsomes assessed as parent compound remaining after 10 mins; format: ADME, Microsome; conditions: read-out: Stability
[21] = Metabolic stability in rat liver microsomes assessed as parent compound remaining after 10 mins; format: ADME, Microsome; conditions: read-out: Stability
[22] = Metabolic stability in mouse liver microsomes assessed as parent compound remaining after 10 mins; format: ADME, Microsome; conditions: read-out: Stability
[23] = biological target: T2, Voltage-gated inwardly rectifying potassium channel KCNH2; experiment: Inhibition of human ERG by fluorescence polarization assay
[24] = biological target: 3',5'-cyclic-AMP phosphodiesterase 4D (Homo sapiens, UniProt Q08499); experiment: Inhibition of [3H]cAMP binding to recombinant human His-Tb fused PDE4D2 (86 to 413 residues) expressed in Escherichia coli using [3H]cAMP as substrate preincubated for 10 mins followed by [3H]cAMP addition and measured after 1 hr by scintillation proximity assay
[25] = Cmax in mouse at 10 mg/kg, po; format: ADME, organism-based; parameters: dose 10 mg/kg, route oral; conditions: in vivo
[26] = AUClast in mouse at 10 mg/kg, po; format: ADME, organism-based; parameters: dose 10 mg/kg, route oral, time 0 - last; conditions: in vivo
Mus musculus [27] = experiment: Antiinflammatory activity in po dosed B6 CB17 mouse model of CD40-induced colitis assessed as inhibition of body weight loss administered twice daily as nanosuspension; format: functional, organism-based; conditions: tested as the 2H-labelled form
Mus musculus [28] = experiment: Antiinflammatory activity in B6 CB17 mouse model of CD40-induced colitis assessed as reduction in colitis severity at 250 mg/kg, po BID administered as nanosuspension; format: functional, organism-based; conditions: tested as the 2H-labelled form
Mus musculus [29] = experiment: Inhibition of IL12/IL18-induced IFNgamma production in po dosed C57BL/6 mouse pretreated for 1 hr followed by IL12 stimulation and subsequent IL18 addition and measured after 3 hrs; format: functional, organism-based; conditions: tested as the 2H-labelled form
Mus musculus [30] = experiment: Antiinflammatory activity in B6 CB17 mouse model of CD40-induced colitis assessed as reduction in inflammation at 250 mg/kg, po BID administered as nanosuspension; format: functional, organism-based; conditions: tested as the 2H-labelled form
Mus musculus [31] = experiment: Antiinflammatory activity in B6 CB17 mouse model of CD40-induced colitis assessed as reduction in colitis damage at 250 mg/kg, po BID administered as nanosuspension; format: functional, organism-based; conditions: tested as the 2H-labelled form

Sequence of JAK2/TYK2 (O60674 whole entry): as the sequence (O60674 whole entry, the tested form may be a part) above
Sequence of JAK2/TYK2 (P29597 whole entry): as the sequence (P29597 whole entry, the tested form may be a part) above

Row | Structure (SMILES) | IC50 (JAK2/TYK2) [nM] | IC50 (JAK1/TYK2) [nM] | IC50 [1] [nM] | IC50 [2] [nM] | IC50 [3] [nM] | IC50 [4] [nM] | IC50 [5] [nM] | IC50 [6] [nM] | Papp A→B [7] [×10⁻⁶ cm/s] | efflux ratio [8] | also measured
1 | CCCC(=O)Nc1cc(Nc2ccccc2S(C)(=O)=O)c(C(=O)NC)cn1 | 2000 | 2700 | 2500 | > 2000 |  |  |  |  |  |  | 
2 | [2H]C([2H])([2H])NC(=O)c1nnc(NC(=O)C2CC2)cc1Nc1ccccc1S(C)(=O)=O |  | 1.3 | 230 |  | 1.3 | 50000 | > 2000 | > 50000 | 6.9 | 7.7 | IC50 [9]: 340 nM; half-life [10]: 110 min; half-life [11]: 81 min; half-life [12]: 48 min; half-life [13]: 67 min; half-life [14]: 75 min; logP [15]: 2.03; Cmax [16]: 3420 nM; AUC(0-t) at 7 h [17]: 6.61 µM·h; Ki [18]: 0.8 nM; IC50 [19]: > 30000 nM
3 | NC(=O)c1ccccc1Nc1cc(Nc2ccc(F)cn2)ncc1C(=O)NC1CC1 | 3300 | 5600 |  |  | 33 | > 2000 | > 2000 | > 2000 |  |  | IC50 (JAK3/JAK1): > 12500 nM; IC50 (JAK2/JAK1): > 12500 nM
4 | CS(=O)(=O)c1ccccc1Nc1cc(Nc2ccc(F)cn2)ncc1C(N)=O | 46 | 35 | 33 |  | 0.32 | 42 | 43 | 18 |  |  | IC50 (JAK3/JAK1): 960 nM; IC50 (JAK2/JAK1): 260 nM; remaining at 10 min [20]: 77%; remaining at 10 min [21]: 3%; remaining at 10 min [22]: 80%; IC50 [9]: 83 nM
5 | CNC(=O)c1cnc(Nc2ccccn2)cc1Nc1ccccc1S(C)(=O)=O | 71 | 57 | 250 | 630 | 0.95 |  |  |  | 10.2 | 9.8 | IC50 [9]: 340 nM; IC50 [23]: 36000 nM; half-life [10]: 53 min; half-life [11]: 25 min; half-life [12]: 14 min; half-life [13]: 3 min; half-life [14]: 13 min; logP [15]: 2.24; Cmax [16]: 1860 nM; AUC(0-t) at 7 h [17]: 4.29 µM·h
6 | CNC(=O)c1cnc(Nc2ccc(F)cn2)cc1Nc1ccc(F)c(F)c1OC | 380 | 220 | 2400 |  | 1.5 |  |  |  | 4.1 | 0.5 | IC50 [24]: 7400 nM; remaining at 10 min [20]: 57%; remaining at 10 min [21]: 73%; remaining at 10 min [22]: 58%; Cmax [25]: 1600 nM; AUC(0-t) [26]: 4 µM·h
7 | CNC(=O)c1cnc(Nc2ccc(F)cn2)cc1Nc1ccccc1OC | 310 | 510 | 3300 |  | 5.2 |  |  |  | 26.7 | 0.4 | IC50 [24]: 9200 nM; remaining at 10 min [20]: 52%; remaining at 10 min [21]: 28%; remaining at 10 min [22]: 35%
8 | CCNC(=O)c1cnc(Nc2ccc(F)cn2)cc1Nc1ccccc1C(N)=O | 4100 | 2500 |  |  | 13 | > 2000 | > 2000 | > 2000 |  |  | IC50 (JAK3/JAK1): > 12500 nM; IC50 (JAK2/JAK1): > 12500 nM
9 | CNC(=O)c1cnc(Nc2ccccn2)cc1Nc1ccccc1C(N)=O | 280 | 310 |  |  | 1.6 |  |  |  |  |  | 
10 | CNC(=O)c1cnc(Nc2ccc(N3CCOCC3)cn2)cc1Nc1ccccc1S(C)(=O)=O | 71 | 59 | 58 | > 2000 |  |  |  |  | < 1.5 | > 26 | IC50 [23]: 40000 nM
11 | CNC(=O)c1cnc(Nc2ccc(OC)cn2)cc1Nc1ccccc1S(C)(=O)=O |  |  |  | 830 |  |  |  |  | 2.9 |  | 
12 | CNC(=O)c1nnc(Nc2ccccn2)cc1Nc1ccccc1S(C)(=O)=O |  |  |  |  |  |  |  |  |  |  | inhibition (Mus musculus [27]): Dose-dependent effect; Activity (Mus musculus [28]): Active; inhibition (Mus musculus [29]): Dose-dependent effect; Activity (Mus musculus [30]): Active; Activity (Mus musculus [31]): Active
13 | CNC(=O)c1cnc(NC(=O)C(C)C)cc1Nc1ccccc1S(C)(=O)=O | 1100 | 4400 | 5200 | > 2000 |  |  |  |  |  |  | 
